Data published in patent US20260184663A1, “INDENE COMPOUNDS, PHARMACEUTICAL COMPOSITIONS THEREOF, AND THEIR THERAPEUTIC APPLICATIONS” (NucMito Pharmaceuticals co. Ltd., priority 2022, published 2026).

Tests used:
Type in all cases: cell-based
[1] = tested on: MDA-MB-231 (breast cancer); assay: Antiproliferative activity (CCK-8 cell viability), MDA-MB-231; details: Homo sapiens, 72 h, read-out: Antiproliferative activity in cancerous cells, MDA-MB-231 (inhibition of cell growth); for inhibition at 3.3 µM: Compound concentration: 3.3 μM; for inhibition at 10 µM: Compound concentration: 10 μM
Outline: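 Growth inhibition of human MDA-MB-231 breast cancer cells was assessed with a Cell Counting Kit-8. Cells cultured in DMEM plus 10% FBS were seeded at 2,000-5,000 cells/well, treated after attachment, and kept 72 h at 37° C. CCK-8 solution (10 μL) was added for 4 h, and absorbance at 450 nm was compared with DMSO-treated controls.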

HepG2 (liver cancer) = assay: Antiproliferative activity (CCK-8 cell viability), HepG2; details: Homo sapiens, 72 h, read-out: Antiproliferative activity in cancerous cells, HepG2 (inhibition of cell growth); for inhibition at 3.3 µM: Compound concentration: 3.3 μM; for inhibition at 10 µM: Compound concentration: 10 μM
Outline: (§1)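 Growth inhibition graded in bands from percent viability against DMSO vehicle, read as CCK-8 absorbance at 450 nm. Compound tested at 3.3, 10 or 30 μM for 72 h, 37 °C; media contained 10% FBS: DMEM for HepG2/SW480, MEM for HeLa, F-12K for A549.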

SW480 (colon cancer) = assay: Antiproliferative activity (CCK-8 cell viability), SW480; details: Homo sapiens, 72 h, read-out: Antiproliferative activity in cancerous cells, SW480 (inhibition of cell growth); for inhibition at 3.3 µM: Compound concentration: 3.3 μM; for inhibition at 10 µM: Compound concentration: 10 μM
Outline: as §1

[2] = tested on: B16F10 (malignant melanoma); assay: Antiproliferative activity (CCK-8 cell viability), B16F10; details: Mus musculus, 72 h, read-out: Antiproliferative activity in cancerous cells, B16F10 (inhibition of cell growth); for inhibition at 3.3 µM: B16-F10, Compound concentration: 3.3 μM; for inhibition at 10 µM: B16-F10, Compound concentration: 10 μM
Outline: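 Cell growth inhibition was measured in B16F10 malignant melanoma cells with a Cell Counting Kit-8 viability assay. Cells were maintained in DMEM plus 10% fetal bovine serum, seeded at 2,000-5,000 cells/well in 96-well plates, and treated for 72 h at 37° C. Viability was expressed relative to DMSO-treated vehicle control wells.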

[3] = tested on: A431 (epidermoid carcinoma); assay: Antiproliferative activity (CCK-8 cell viability), A431; details: Homo sapiens, 72 h, read-out: Antiproliferative activity in cancerous cells, A431 (inhibition of cell growth); for inhibition at 3.3 µM: A-431, Compound concentration: 3.3 μM; for inhibition at 10 µM: A-431, Compound concentration: 10 μM
Outline: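 This growth inhibition assay used A431 cells maintained in Dulbecco's modified Eagle's medium plus 10% fetal bovine serum. Cells were seeded in 96-well plates, treated with compound for 72 h at 37° C., and then given 10 μL CCK-8 solution. After a further 4 h, absorbance was read at 450 nm.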

[4] = tested on: A549 (lung adenocarcinoma); assay: Antiproliferative activity (CCK-8 cell viability), A549; details: Homo sapiens, 72 h, read-out: Antiproliferative activity in cancerous cells, A549 (inhibition of cell growth); for inhibition at 3.3 µM: Compound concentration: 3.3 μM; for inhibition at 10 µM: Compound concentration: 10 μM
Outline: as §1

HeLa (cervical cancer) = assay: Antiproliferative activity (CCK-8 cell viability), HeLa; details: Homo sapiens, 72 h, read-out: Antiproliferative activity in cancerous cells, HELA (inhibition of cell growth); for inhibition at 3.3 µM: Compound concentration: 3.3 μM; for inhibition at 10 µM: Compound concentration: 10 μM
Outline: as §1

Compound | inhibition at 3.3 µM [1] | inhibition at 10 µM [1] | inhibition at 3.3 µM (HepG2 (liver cancer)) | inhibition at 10 µM (HepG2 (liver cancer)) | inhibition at 3.3 µM (SW480 (colon cancer)) | inhibition at 10 µM (SW480 (colon cancer)) | inhibition at 3.3 µM [2] | inhibition at 10 µM [2] | inhibition at 3.3 µM [3] | inhibition at 10 µM [3] | inhibition at 3.3 µM [4] | inhibition at 10 µM [4] | inhibition at 3.3 µM (HeLa (cervical cancer)) | inhibition at 10 µM (HeLa (cervical cancer))
CC1=C(CC(=O)O)c2cc(F)ccc2/C1=C\c1ccc(COCc2ccc(C)cc2)cc1 [B102, (Z)-2-(5-Fluoro-2-methyl-1-(4-(((4-methylbenzyl)oxy)methyl)benzylidene)-1H-inden-3-yl)acetic acid] | 30 to 50% | ≥ 50% | 30 to 50% | ≥ 50% | < 30% | ≥ 50% | < 30% | ≥ 50% | ≥ 50% | ≥ 50% | < 30% | ≥ 50% | < 30% | ≥ 50%
CC1=C(CC(=O)O)c2cc(F)ccc2/C1=C\c1ccc(COCc2ccc(Cl)cc2)cc1 [B103, (Z)-2-(1-(4-(((4-Chlorobenzyl)oxy)methyl)benzylidene)-5-fluoro-2-methyl-1H-inden-3-yl)acetic acid] | 30 to 50% | ≥ 50% | 30 to 50% | ≥ 50% | < 30% | ≥ 50% | < 30% | ≥ 50% | ≥ 50% | ≥ 50% | < 30% | ≥ 50% | < 30% | ≥ 50%
CC1=C(CC(=O)O)c2cc(F)ccc2/C1=C\c1ccc(COCc2ccccc2)cc1 [B104, (Z)-2-(1-(4-((Benzyloxy)methyl)benzylidene)-5-fluoro-2-methyl-1H-inden-3-yl)-acetic acid] | 30 to 50% | ≥ 50% | < 30% | ≥ 50% | ≥ 50% | ≥ 50% | ≥ 50% | ≥ 50% | ≥ 50% | ≥ 50% | 30 to 50% | 30 to 50% | ≥ 50% | ≥ 50%
CC1=C(CC(=O)O)c2cc(F)ccc2/C1=C\c1ccc(COCc2ccc(F)c(F)c2)cc1 [B105, (Z)-2-(1-(4-(((3,4-Difluorobenzyl)oxy)methyl)benzylidene)-5-fluoro-2-methyl-1H-inden-3-yl)acetic acid] | 30 to 50% | ≥ 50% | < 30% | ≥ 50% | 30 to 50% | ≥ 50% | 30 to 50% | ≥ 50% | 30 to 50% | ≥ 50% | 30 to 50% | ≥ 50% | ≥ 50% | ≥ 50%
CC1=C(CC(=O)O)c2cc(F)ccc2/C1=C\c1ccc(COCc2ccc(F)c(Cl)c2)cc1 [B106, (Z)-2-(1-(4-(((3-Chloro-4-fluorobenzyl)oxy)methyl)benzylidene)-5-fluoro-2-methyl-1H-inden-3-yl)acetic acid] | ≥ 50% | ≥ 50% | < 30% | ≥ 50% | ≥ 50% | ≥ 50% | < 30% | ≥ 50% | 30 to 50% | ≥ 50% | 30 to 50% | ≥ 50% | ≥ 50% | ≥ 50%
CCc1ccc2c(c1)C(CC(=O)O)=C(C)/C2=C/c1ccc(COCc2ccc(F)cc2)cc1 [B107, (Z)-2-(5-Ethyl-1-(4-(((4-fluorobenzyl)oxy)methyl)benzylidene)-2-methyl-1H-inden-3-yl)acetic acid] | < 30% | 30 to 50% | < 30% | < 30% | ≥ 50% | ≥ 50% | < 30% | 30 to 50% | ≥ 50% | 30 to 50% | 30 to 50% | ≥ 50% | < 30% | ≥ 50%
COc1ccc(COCc2ccc(/C=C3/C(C)=C(CC(=O)O)c4cc(F)ccc43)cc2)cc1Cl [B108, (Z)-2-(1-(4-(((3-Chloro-4-methoxybenzyl)oxy)methyl)benzylidene)-5-fluoro-2-methyl-1H-inden-3-yl)acetic acid] | ≥ 50% | ≥ 50% | < 30% | ≥ 50% | < 30% | ≥ 50% | 30 to 50% | ≥ 50% | 30 to 50% | ≥ 50% | 30 to 50% | ≥ 50% | 30 to 50% | ≥ 50%
CC1=C(CC(=O)O)c2cc(I)ccc2/C1=C\c1ccc(COCc2ccc(F)cc2)cc1 [B109, (Z)-2-(1-(4-(((4-Fluorobenzyl)oxy)methyl)benzylidene)-5-iodo-2-methyl-1H-inden-3-yl)acetic acid] | ≥ 50% | ≥ 50% | < 30% | ≥ 50% | < 30% | ≥ 50% | < 30% | ≥ 50% | < 30% | ≥ 50% | 30 to 50% | ≥ 50% | ≥ 50% | ≥ 50%
CC1=C(CC(=O)O)c2cc(C)ccc2/C1=C\c1ccc(COCc2ccc(F)cc2)cc1 [B110, (Z)-2-(1-(4-(((4-Fluorobenzyl)oxy)methyl)benzylidene)-2,5-dimethyl-1H-inden-3-yl)acetic acid] | ≥ 50% | ≥ 50% | < 30% | 30 to 50% | < 30% | ≥ 50% | ≥ 50% | ≥ 50% | 30 to 50% | ≥ 50% | 30 to 50% | ≥ 50% | < 30% | ≥ 50%
CC1=C(CC(=O)O)c2cc(F)ccc2/C1=C\c1ccc(COCc2ccc(C(F)(F)F)cc2)cc1 [B111, (Z)-2-(5-Fluoro-2-methyl-1-(4-(((4-(trifluoromethyl)benzyl)oxy)methyl)-benzylidene)-1H-inden-3-yl)acetic acid] | 30 to 50% | ≥ 50% | < 30% | ≥ 50% | < 30% | ≥ 50% | 30 to 50% | ≥ 50% | < 30% | ≥ 50% | 30 to 50% | ≥ 50% | ≥ 50% | ≥ 50%
